According to ChEMBL document CHEMBL4368856, “Probing the hras-1Y i-motif with small molecules” (Medchemcomm, 2018):
Activity calls are given as the source filed them. The calls are words filed in the database; no cut-off is given here.

Columns and labels:
[1] = Binding affinity to 5'-AlexaFluor 647-labelled HRAS-1 Y i-motif DNA (unknown origin) by fluorescence titration method
[2] = Binding affinity to 5'-biotin-labelled HRAS-1 Y i-motif DNA (unknown origin) by surface plasmon resonance analysis
[3] = Binding affinity to HRAS-1 Y i-motif DNA (unknown origin) in pH 6 tris-acetate buffer assessed as confirmational change at 10 to 50 uM by circular dichroism analysis
[4] = Binding affinity to HRAS-1 Y i-motif DNA (unknown origin) in pH 8 D2O/DMSO at 100 uM by 1H-WaterLOGSY NMR analysis
[5] = Binding affinity to HRAS-1 Y i-motif DNA (unknown origin) in pH 6 D2O/DMSO assessed as chemical shift perturbation at 7 to 12 ppm up to 150 uM by NMR analysis
[6] = Binding affinity to HRAS-1 Y i-motif DNA (unknown origin) in pH 6 D2O/DMSO assessed as chemical shift perturbation in i-motif imino proton at 15 to 16 ppm up to 150 uM by NMR analysis
[7] = Binding affinity to 5'-AlexaFluor 647-labelled HRAS-1 Y i-motif DNA (unknown origin) after 1 hr by fluorescence assay
[8] = Binding affinity to HRAS-1 Y i-motif DNA (unknown origin) in pH 6 D2O/DMSO assessed as chemical shift perturbation in Watson-Crick imino proton at 12.5 to 14 ppm up to 150 uM by NMR analysis
[9] = Binding affinity to HRAS-1 Y i-motif DNA (unknown origin) in pH 6 D2O/DMSO at 100 uM by 1H-WaterLOGSY NMR analysis
[10] = Binding affinity to HRAS-1 Y i-motif DNA (unknown origin) assessed as change in melting temperature by thermal denaturation study
[11] = Aggregation property of the compound in D2O/DMSO at 100 uM by 1H-WaterLOGSY NMR analysis; format: physicochemical
[12] = Binding affinity to HRAS-1 Y i-motif DNA (unknown origin) in D2O/DMSO at 100 uM by 1H-WaterLOGSY NMR analysis
[13] = Binding affinity to 5'-ATTO/3'-TAMRA labelled HRAS-1 Y i-motif DNA (unknown origin) up to 252 uM after 10 mins by FRET assay

Kd [1] [µM]	Kd [2] [µM]	SMILES	further results
90.7	149	CC(c1ccc(-c2cc(N3CCOCC3)nc(N)n2)cc1)C(C)N1CCCC1 (stereo not given)	
35.6	5.9	COc1ccc(CCN(C)C2CCCN(c3ccnc(N)n3)C2)cc1OC (stereo not given)	Activity [3]: inactive; Activity [4]: inactive; Activity [5]: Active; Activity [6]: inactive; Activity [7]: Active; Activity [8]: Active; Activity [9]: Active; Activity [10]: inactive
254	51	COc1cc(-c2ccc(C(C)N3CCCCC3)cc2)nc(N)n1 (stereo not given)	
> 209	> 300	Nc1nccc(N2CCCC(CCc3ccccc3)C2)n1 (stereo not given)	
16	11.6	COc1ccc(CCN(C)C2CCCN(c3cc(C)nc(N)n3)C2)cc1OC (stereo not given)	
50.4	> 300	COc1ccc(CCN(C)C2CCCN(c3ccnc(N(C)C)n3)C2)cc1OC (stereo not given)	
106	> 300	CC(c1ccc(-c2cc(N3CCCC3)nc(N)n2)cc1)N(C)C (stereo not given)	
0.6	0.2	COc1cc(N2CCCC(N(C)CCc3ccc(OC)c(OC)c3)C2)ncn1 (stereo not given)	
30.8	78	COc1ccc(CCCNc2nc(N)nc3c2CCNCC3)cc1OC	
1.6	7.4	CC(c1ccc(-c2cc(NCCO)nc(N)n2)cc1)N1CCCC1 (stereo not given)	Activity [3]: Active; Activity [4]: inactive; Activity [11]: Not Active; Activity [5]: inactive; Activity [6]: Active; Activity [7]: Active; Activity [12]: Active; Activity [8]: inactive; Activity [13]: inactive; Activity [9]: Active; Activity [10]: inactive
> 209	> 300	COc1cc(-c2ccc(C(C)N3CCCC3)cc2)nc(N)n1 (stereo not given)	
> 209	243	NCCn1cc(C(=O)NC2CCCN(Cc3cccc(O)c3)C2)nn1 (stereo not given)	
3	0.3	COc1ccc(CCN(C)C2CCCN(c3ccnc(C)n3)C2)cc1OC (stereo not given)	
